Values of other authors, collected in patent EP0716679B1, “METHOD OF CLEANING VINYL SURFACES BY MEANS OF MILDLY ACIDIC HARD SURFACE CLEANING COMPOSITIONS CONTAINING AMINE OXIDE DETERGENT SURFACTANTS” (THE PROCTER & GAMBLE COMPANY, priority 1993, dated 1995).
Where two headings read alike, the source gives them in different places.

SMILES | pKa of acidifying agent (first pKa) | pKa of acidifying agent (second pKa) | pKa of acidifying agent (fourth pKa printed) | pKa of acidifying agent (third pKa printed)
O=C(O)CC(O)C(=O)O (stereo not shown) [Malic acid] |  | 5.05 |  | 
O=C(O)CN(CCN(CC(=O)O)CC(=O)O)CC(=O)O [Ethylene diamine tetraacetic acid] | 1.7 | 2.6 | 10.6 | 6.3
